A short description of series [1]: Cytotoxicity measured as % loss of cells after 120 min. The class given is cell-based. Particulars: rat, 2 h.
The nature of series [2]: Cytotoxicity measured as % loss of cells after 60 min. It is filed as cell-based. To be noted: rat, 1 h.
Series [3] is described as follows: Cytotoxicity measured as % loss of cells after 90 min. To be noted: rat. The class given is cell-based.
Series [4] concerns the target Amine oxidase [flavin-containing] B (Bos taurus) (UniProt P56560).
For series [5] the target is unchanged. Briefly: Inactivation of monoamine oxidase measured as kinetic constant, KI at 0.8-4 conc range.
For series [6] the target is unchanged. In words: Inactivation of monoamine oxidase measured as kinetic constant, Kinact at 0.8-4 conc range.

pKi: −log10 of the molar value.

Chain of Amine oxidase [flavin-containing] B (Bos taurus) (P56560 whole entry, looked up): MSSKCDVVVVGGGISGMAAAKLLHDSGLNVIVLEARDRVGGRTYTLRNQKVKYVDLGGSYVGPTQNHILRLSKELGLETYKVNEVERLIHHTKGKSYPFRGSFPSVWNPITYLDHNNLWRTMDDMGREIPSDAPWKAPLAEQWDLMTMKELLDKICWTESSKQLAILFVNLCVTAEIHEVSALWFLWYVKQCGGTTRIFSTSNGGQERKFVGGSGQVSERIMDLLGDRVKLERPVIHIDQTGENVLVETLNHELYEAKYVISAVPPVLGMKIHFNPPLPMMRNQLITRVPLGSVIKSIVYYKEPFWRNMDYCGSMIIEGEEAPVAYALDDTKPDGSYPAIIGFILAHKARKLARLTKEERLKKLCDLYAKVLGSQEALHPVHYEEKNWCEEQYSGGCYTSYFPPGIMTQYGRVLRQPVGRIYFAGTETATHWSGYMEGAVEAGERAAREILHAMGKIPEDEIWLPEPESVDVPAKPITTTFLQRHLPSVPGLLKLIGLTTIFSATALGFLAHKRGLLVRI

As for `CN1CC=C(c2ccccc2)CC1`, the Loss of cells stood at 81% in series [1], 12% in series [2] and 58% in series [3].

Regarding `CN(C)C/C=C/c1ccccc1`, the pKi – broadly, the Ki on a negative log10 scale, so that one unit is a factor of ten – in series [4] was 2.87; in series [5], 2.88. Besides, the inactivation rate constant (kinact) (in general, the maximal first-order rate at which the target is inactivated) in series [6] is 0.00356 s⁻¹.

With `C/C=C(\C)c1ccccc1`, the pKi in series [4] is 2.72.

Consider `C#CCN(C)Cc1ccccc1.CN1CC=C(c2ccccc2)CC1`, for which the Loss of cells in series [1] was 5%; in series [2], 6%; in series [3], 11%.

For the compound `C#CCN(C)Cc1ccccc1.NC1C=C(c2ccccc2)CCC1` (stereo not given), the Loss of cells was 69% in series [1], 24% in series [2] and 51% in series [3].

Consider `CN(C)C1C=C(c2ccccc2)CCC1` (stereo not given), for which the Loss of cells in series [2] is reported as 100%. The pKi in series [4] is 2.98.

The compound `C#CCN(C)Cc1ccccc1.CN(C)C1C=C(c2ccccc2)CCC1` (stereo not given) gave a Loss of cells in series [2] of 100%.

Turning to `NC1C=C(c2ccccc2)CCC1` (stereo not given), the Loss of cells in series [1] was 60%; in series [2], 28%; in series [3], 35%. The compound also gave a pKi in series [4] of 3.29.
